Literature values as cited in patent US7928052B2, “Enzyme stabilization” (Dow Global Technologies LLC, priority 2004, dated 2011).

K1, complexation constant B(OH)3+H2L⇄[1:1]−+H3O+ (H2L is fully protonated lactic acid): 1.8×10^−3 | K1′, complexation constant B(OH)3+HL−⇄[1:1]−+H2O (pH 4 to about pH 10, lactic acid having lost a proton): 9.0 M⁻¹
Compound: CC(O)C(=O)O (centres unmarked) [lactic acid]
